Activity calls are given as the source filed them.
Experiments:
[1] = Mycobacterium tuberculosis BioA enzyme inhibitor Measured in Biochemical System Using Plate Reader - 2163-02_Inhibitor_Dose_DryPowder_Activity.
[2] = MITF Orthogonal Assay: MALME3 CTG Assay Measured in Cell-Based System Using Plate Reader - 2084-04_Inhibitor_Dose_DryPowder_Activity_Set6.; assay type: functional; conditions: MALME-3
[3] = growth inhibition of SK-MEL-5 melanoma cells – cell-based, CellTiter-Glo luminescence, dry powder, set 8, orthogonal assay for MITF inhibitor project, dose response (AID 651586); assay type: functional
[4] = growth inhibition of MALME3 cells – cell-based, CellTiter-Glo luminescence, dry powder, set 5, orthogonal assay for MITF inhibitor project, dose response (AID 651584); assay type: functional; conditions: MALME-3
[5] = MITF Orthogonal Assay: SK-MEL-5 CTG Assay Measured in Cell-Based System Using Plate Reader - 2084-02_Inhibitor_Dose_DryPowder_Activity_Set7.; assay type: functional
[6] = MITF: Counter assay: A375 proliferation Measured in Cell-Based System Using Plate Reader - 2084-03_Inhibitor_Dose_DryPowder_Activity_Set8.; assay type: functional; conditions: A-375
[7] = cytotoxicity in MITF-independent A375 cells – cell-based, CellTiter-Glo luminescence, dry powder, set 9, counter-screen for MITF modulator project, dose response (AID 651591); assay type: functional; conditions: A-375
[8] = inhibitors of TRPM1-promoter reporter in SK-MEL-5 – cell-based, luciferase, dry powder, set 8, MITF inhibitor project, dose response (AID 624430); assay type: functional
[9] = melanocyte viability loss, MITF-dependent cells, cell-based, plate reader, dry powder, cytotoxicity control, dose response (AID 651920); assay type: functional
[10] = CTGF mRNA reduction in DLD1 cells – cell-based, DLD1 colon cancer, RT-qPCR, cherry-pick, dose response (AID 1053122); assay type: functional; conditions: Cancer cell lines
[11] = growth inhibition of yeast DHODH-expressing 3D7 parasites – SYBR Green, dry powder samples, dose response (AID 1159570); assay type: functional, cell-based;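 note: parasite growth measured after 72 hours of compound exposure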
[12] = toxicity to human HepG2 hepatoma cells – cell-based, plate reader, dry powder samples, cytotoxicity control, dose response (AID 1159569); assay type: functional;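 note: inhibitor potency with signal falling toward the positive control level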
[13] = P. falciparum Dd2 growth inhibitors, dose response, SYBR Green, cherry-picked samples (AID 1159567); assay type: functional, cell-based
[14] = Dd2 malaria parasite growth inhibition potency – SYBR Green, dry powder samples, dose response (AID 1159566); assay type: functional, cell-based;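 note: potency for growth inhibition with lower SYBR green DNA signal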
[15] = toxicity to human hepatoma HepG2 cells – cell-based, cherry-picked samples, cytotoxicity control, dose response (AID 1159577); assay type: functional
[16] = growth inhibition of PfATP4-mutant resistant parasites – NITD609-resistant line, SYBR Green, dry powder, dose response (AID 1159571); assay type: functional, cell-based;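 note: parasites synchronized at ring stage by sorbitol before testing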
[17] = Late stage assay provider results from the probe development effort to identify selective inhibitors of heat shock protein 90 (HSP90): Absorbance-based cell proliferation assay in SKBR3 cells.; assay type: functional; conditions: SK-BR-3
[18] = Late stage assay provider results from the probe development effort to identify selective inhibitors of heat shock protein 90 (HSP90): Absorbance-based cell proliferation assay in MCF7 cells.; assay type: functional
[19] = molecular target: NS3 (Hepatitis C virus, UniProt A3EZJ3); test: NS3h DNA-binding inhibition IC50 – biochemical, fluorescence polarization, ChemBridge library, dose response (AID 743264)
[20] = HEK293 cell viability loss – cherry-picked samples, cytotoxicity control, dose response (AID 1053185); assay type: functional, cell-based
[21] = Dd2 parasite growth inhibition in erythrocytes – SYBR Green, dry powder samples, set 9, dose response (AID 1159568); assay type: functional, cell-based
[22] = viability loss in HepG2 hepatoma cells – cell-based, cherry-picks, set 5, cytotoxicity control, dose response (AID 1053118); assay type: functional
[23] = viability loss in HEK293 kidney cells – cell-based, cherry-picks, set 5, cytotoxicity control, dose response (AID 1053117); assay type: functional
[24] = Late stage assay provider results from the probe development effort to identify inhibitors of the Plasmodium falciparum M18 Aspartyl Aminopeptidase (M18AAP): radiolabel-based cell-based dose response assay to identify compounds that inhibit P. falciparum growth in RBCs, Set 2..; assay type: functional

NS3, sequence (A3EZJ3 whole entry): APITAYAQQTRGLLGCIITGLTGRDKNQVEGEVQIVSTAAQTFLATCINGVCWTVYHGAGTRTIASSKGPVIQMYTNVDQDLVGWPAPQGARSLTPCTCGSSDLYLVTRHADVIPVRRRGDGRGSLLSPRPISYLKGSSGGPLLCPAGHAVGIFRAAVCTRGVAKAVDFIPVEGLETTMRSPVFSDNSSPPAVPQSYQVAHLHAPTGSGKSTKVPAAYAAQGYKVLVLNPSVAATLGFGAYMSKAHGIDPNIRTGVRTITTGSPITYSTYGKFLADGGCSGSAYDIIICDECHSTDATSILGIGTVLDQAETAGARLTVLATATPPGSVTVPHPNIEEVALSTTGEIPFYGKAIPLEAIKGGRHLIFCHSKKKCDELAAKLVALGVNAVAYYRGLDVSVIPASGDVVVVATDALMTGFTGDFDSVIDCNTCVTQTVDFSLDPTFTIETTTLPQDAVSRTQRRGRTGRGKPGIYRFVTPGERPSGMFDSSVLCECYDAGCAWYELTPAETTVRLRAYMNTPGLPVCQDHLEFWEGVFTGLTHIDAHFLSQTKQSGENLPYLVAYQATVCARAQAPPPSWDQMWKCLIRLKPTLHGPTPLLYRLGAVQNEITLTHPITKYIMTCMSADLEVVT

## O=C(Nc1cccnc1)N1CCN(c2ccccc2)CC1
[1]
  AC50: 13 µM (active)

## Cc1ccc(NC2=CC(=O)c3ccccc3C2=O)cc1
[2]
  AC50: 13.5 µM (active)
[3]
  AC50: 36.1 µM (active)
[4]
  AC50: 13.5 µM (active)
[5]
  AC50: 1.24 µM (active)
[6]
  AC50: > 70 µM (inactive)
[7]
  AC50: > 70 µM (inactive)
[8]
  AC50: 6.58 µM (active)
[9]
  AC50: > 70 µM (inactive)

## C[C@@H]1CN([C@H](C)CO)C(=O)c2c(c3ccccc3n2C)-c2ccccc2CO[C@@H]1CN(C)Cc1cccc(C(F)(F)F)c1
[10]
  AC50: 14.3 µM (active)
[11]
  AC50: 3.38 µM (active)
[12]
  AC50: 19.6 µM (active)
[13]
  AC50: 1.87 µM (active)
[14]
  AC50: 1.28 µM (active)
[15]
  AC50: 27.2 µM (active)
[16]
  AC50: 2.09 µM (active)

## O=c1oc2ccc(OCCc3ccc(F)cc3)cc2cc1Br
[17]
  IC50: 91.7 µM (inactive)
[18]
  IC50: > 100 µM (inactive)

## O=C1NC(=O)N(c2ccccc2F)C(=O)/C1=C/c1ccc(-c2cc(C(=O)O)ccc2Cl)o1
[19]
  IC50: 35 µM (inactive)

## C[C@H](CO)N1C[C@H](C)[C@@H](CN(C)Cc2ccccc2)Oc2c(NC(=O)Cc3cn(C)c4ccccc34)cccc2C1=O
[20]
  AC50: 40.1 µM (active)
[21]
  AC50: 1.97 µM (active)

## COc1cccc(-c2ccc3c(c2)[C@H]2[C@H](CCN2S(=O)(=O)c2cccc(OC)c2)[C@@H](CO)N3)c1
[22]
  AC50: > 52 µM (inactive)
[23]
  AC50: 29.7 µM (active)

## COc1ccc(CCNc2ccnc3cc(Cl)ccc23)cc1OC
[24]
  IC50: 0.66 µM (active)

Source: ChEMBL document CHEMBL1201862, “PubChem BioAssay data set” (2004)
